Broadly, the pIC50 is −log10 of the IC50, conventionally taken in molar units. Low values mean a large IC50, high ones a small IC50.

pIC50: −log10 of the molar value.

The results in this text go back to patent EP0533240A2, “Substituted amine derivatives of piperazinylcamphorsulfonyl oxytocin antagonists” (MERCK & CO. INC., priority 1991, dated 1993).

The first test concerns the target T1, uterine OT receptors (Rattus norvegicus, UniProt P70536).
T1 construct: from tissue; host or cells: uterus of DES-treated rats, crude membrane preparation
T1 sequence (P70536 1-388): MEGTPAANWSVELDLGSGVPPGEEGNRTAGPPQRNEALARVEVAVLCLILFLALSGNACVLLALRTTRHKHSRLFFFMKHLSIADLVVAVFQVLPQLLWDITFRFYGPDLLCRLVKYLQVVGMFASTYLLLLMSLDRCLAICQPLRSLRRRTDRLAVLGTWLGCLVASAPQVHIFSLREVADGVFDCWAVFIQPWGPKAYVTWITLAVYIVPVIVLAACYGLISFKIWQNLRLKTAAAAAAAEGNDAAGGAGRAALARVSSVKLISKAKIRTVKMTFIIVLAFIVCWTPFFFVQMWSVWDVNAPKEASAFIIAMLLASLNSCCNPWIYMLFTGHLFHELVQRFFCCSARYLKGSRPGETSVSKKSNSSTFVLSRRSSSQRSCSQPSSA
Nature of the test: [3H]Oxytocin radioligand binding assay, crude uterine membrane preparation. Further details: species or system rats. The conditions noted are these: at 100 nM compound; 1 nM [3H]OT, rat uterine membranes.
Description: Oxytocin (OT)([tyrosyl, 3,5-[^3H]OT; 30-60 Ci/mmol; New England Nuclear. Boston, MA) to uterine OT receptors was based on an assay*using a crude membrane preparation of uteri taken from diethylstilbestrol dipropionate (DES)-treated (0.3 mg/kg, ip; 18-24) rats. Competetion studies were conducted at equilibrium (60 minutes; 22 °C) using 1 nM[^3H]OT in the following assay buffer: 50 mM Tris-HCI, 5 mM MgCl2, and 0.1% BSA, pH 7.4. Nonspecific binding (10% of the total binding) was determined using 1µM unlabeled OT and the binding reaction was terminated by filtration through glass fiber filters using a cell harvester (model 7019, Skatron, Inc., Sterling, VA).
`C=CC1(O)CC2CCC1(CS(=O)(=O)N1CCN(c3ccccc3C)CC1)C2(C)C` (stereo not drawn) [Example 12, 1-((7,7-dimethyl-2-exo-hydroxy-2-endo-ethenyl-bicyclo(2.2.1)heptan-1-yl)methanesulfonyl)-4-(2-methylphenyl)piperazine] had an inhibition at 0.1 µM of 23%.

In the case of `COC(=O)CCNCC(C)C1(O)CC2CCC1(CS(=O)(=O)N1CCN(c3ccccc3C)CC1)C2(C)C` (centres unmarked) [Example 10], the inhibition at 0.1 µM stood at 48%.

`CCOC(=O)CN1CCCC(C(=O)NC(C)CC2(O)CC3CCC2(CS(=O)(=O)N2CCN(c4ccccc4C)CC2)C3(C)C)C1` (centres unmarked) [Example 57]: the “inhibition at 100 nM” value is listed as 66% inhibition at 100 nM.

Staying with this test, now noted: at 1,000 nM compound; 1 nM [3H]OT, rat uterine membranes.
Turning to `Cc1ccccc1N1CCN(S(=O)(=O)CC23CCC(CC2=CCN)C3(C)C)CC1` (centres unmarked) [Example 16, 1-((7,7-dimethyl-2-(2-amino)ethylidine-bicyclo(2.2.1)heptan-1-yl)methanesulfonyl)-4-(2-methylphenyl)-piperazine], the inhibition at 1 µM stood at 64%.

The molecule `Cc1ccccc1N1CCN(S(=O)(=O)CC23CCC(CC2N(C)C(=O)OCc2ccccc2)C3(C)C)CC1` (centres unmarked) [Example 40] returned an inhibition at 1 µM of 35%.

As to `Cc1ccccc1N1CCN(S(=O)(=O)CC23CCC(CC2NC(=O)OCc2ccccc2)C3(C)C)CC1` (centres unmarked) [Example 39], the inhibition at 1 µM amounted to 54%.

`Cc1ccccc1N1CCN(S(=O)(=O)CC23CCC(C=C2C(=O)NCCc2c[nH]cn2)C3(C)C)CC1` (centres unmarked) [Example 22, 1-((7,7-DIMETHYL-2-(4-IMIDAZOLYL)ETHYLAMINOCARBONYL-BICYCLO(2.2.1 )HEPT-2-EN-1-YL)-METHANESULFONYL)-4-(2-METHYLPHENYL)PIPERAZINE] had an inhibition at 1 µM of 78%.

`Cc1ccccc1N1CCN(S(=O)(=O)CC23CCC(CC2O)C3(C)C)C(C)C1` (centres unmarked) [Example 32]: the inhibition at 1 µM is 37%.

Molecule `COC(=O)C1=CC2CCC1(CS(=O)(=O)N1CCN(c3ccccc3C)CC1)C2(C)C` (centres unmarked) [Example 20, 1-((7,7-DIMETHYL-2-METHOXYCARBONYL-BICYCLO (2.2.1)HEPT-2-EN-1-YL)METHANESULFONYL)-4-(2-METHYLPHENYL)PIPERAZINE] gave an inhibition at 1 µM of 72%.

Consider `Cc1ccccc1N1CCN(S(=O)(=O)CC23CCC(CC2(O)CNCC(C)C)C3(C)C)CC1` (stereo not drawn) [Example 19, 1-((7,7-DIMETHYL-2-EXO-HYDROXY-2-ENDO-ISOBUTYLAMINOMETHYL-BICYCLO(2.2.1 )HEPTAN-1-YL)-METHANESULFONYL)-4-(2-METHYLPHENYL)PIPERAZINE], for which the inhibition at 1 µM was found to be 31%.

`Cc1ccccc1N1CCN(S(=O)(=O)CC23CCC(CC24CO4)C3(C)C)CC1` (centres unmarked) [Example 18] gave an inhibition at 1 µM of 75%.

The same test, now with this note: at 10,000 nM compound; 1 nM [3H]OT, rat uterine membranes.
With `Cc1ccccc1N1CCN(S(=O)(=O)CC23CCC(CC2=O)C3(C)C)CC1=O` (centres unmarked) [Example 30], the inhibition at 10 µM was 16%.

For the molecule `Cc1ccccc1N1CCN(S(=O)(=O)CC23CCC(CC2=O)C3(C)C)C(C)C1=O` (centres unmarked) [Example 31], the inhibition at 10 µM stood at 5%.

The same test, now with this note: competition with 1 nM [3H]OT, 60 minutes, 22 °C, membranes of uteri from DES-treated rats.
For `Cc1ccccc1N1CCN(S(=O)(=O)CC23CCC(CC2=O)C3(C)C)CC1` (centres unmarked) [Example 1, 1-((7,7-DIMETHYL-2-OXO-BICYCLO(2.2.1)HEPTAN-1-YL) METHANESULFONYL)-4-(2-METHYLPHENYL)-PIPERAZINE], the negative-log IC50 (pIC50) was 6.00.

`Cc1ccccc1N1CCN(S(=O)(=O)CC23CCC(CC2NC(=O)[C@@H](N)CCS(C)(=O)=O)C3(C)C)CC1=O` (stereo partly drawn) [Example 36, 1-((7,7-DIMETHYL-2-ENDO-(2S-AMINO-4-(METHYLSULFONYL)BUTYRAMIDO)-BICYCLO(2.2.1 )HEPTAN-1-YL)METHANESULFONYL)-4-(2-METHYLPHENYL)-3-PIPERAZINONE] gave a pIC50 of 8.11.

Regarding `CCOC(=O)CCCN1CCCC1C(=O)NCC(C)C1(O)CC2CCC1(CS(=O)(=O)N1CCN(c3ccccc3C)CC1)C2(C)C` [Example 5, 1-((7,7-DIMETHYL-2-EXO-HYDROXY-2-ENDO-2-(1-(L-N-(ETHOXYCARBONYLPROPYL)PROLYL)AMINO)-PROPYL-BICYCLO-(2.2.1)HEPTAN-1-YL)METHANESULFONYL)-4-(2-METHYLPHENYL) PIPERAZINE], the pIC50 was 7.00. Compared with the last molecule, the pIC50 is 1.11 log units lower.

As for `Cc1ccccc1N1CCN(S(=O)(=O)CC23CCC(CC2(O)C(C)CN)C3(C)C)CC1` (single isomer, unassigned) [Example 3, 1-((7,7-DIMETHYL-2-EXO-HYDROXY-2-ENDO-2-(1-AMINO)PROPYL-BICYCLO(2.2.1 )HEPTAN-1-YL)-METHANESULFONYL)-4-(2-METHYLPHENYL)PIPERAZINE], the pIC50 is 6.74.

In the case of `Cc1ccccc1N1CCN(S(=O)(=O)CC23CCC(CC2(O)C(C)CNC(=O)C2CN4CCC2CC4)C3(C)C)CC1` (centres unmarked) [Example 8], the pIC50 was 7.74.

Take `Cc1ccccc1N1CCN(S(=O)(=O)CC23CCC(CC2(O)C(C)CNC(=O)C2CCCN2CC(=O)O)C3(C)C)CC1` (centres unmarked) [Example 53]: the pIC50 was 7.55.

The molecule `Cc1ccccc1N1CCN(S(=O)(=O)CC23CCC(CC2(O)C(C)CNC(=O)C2CCCNC2)C3(C)C)CC1` (stereo not drawn) [Example 47, 1-((7,7-DIMETHYL-2-EXO-HYDROXY-2-ENDO-2-(1-(3-PIPERIDINYLCARBONYL)AMINO)PROPYL-BICYCLO-(2.2.1)HEPTAN-1-YL) METHANESULFONYL)-4-(2-METHYLPHENYL)PIPERAZINE] had a pIC50 of 7.82.

Turning to `COC(=O)CCN(CCC(=O)OC)CC(C)C1(O)CC2CCC1(CS(=O)(=O)N1CCN(c3ccccc3C)CC1)C2(C)C` (stereo not drawn) [Example 11, 1-((7,7-dimethyl-2-exo-hydroxy-2-endo-2-(1-bis-(2-methoxycarbonylethyl)amino)propylbicyclo(2.2.1)heptan-1-yl)methanesulfonyl)-4-(2-methylphenyl)piperazine], the pIC50 is 7.27.

On to `COC(=O)CCN1CCC(C(=O)NCC(C)C2(O)CC3CCC2(CS(=O)(=O)N2CCN(c4ccccc4C)CC2)C3(C)C)CC1` (centres unmarked) [Example 55], for which the pIC50 was 7.52. Compared with the last molecule, the pIC50 is 0.25 log units higher.

Take `Cc1ccccc1N1CCN(S(=O)(=O)CC23CCC(CC2(O)C(C)CNC(=O)C2CCCN(CC(=O)O)C2)C3(C)C)CC1` (centres unmarked) [Example 51]: the negative-log IC50 (pIC50) was 7.42.

Molecule `COC(=O)C1CC(=O)N(CC(C)C2(O)CC3CCC2(CS(=O)(=O)N2CCN(c4ccccc4C)CC2)C3(C)C)C1` (centres unmarked) [Example 26] showed a pIC50 of 7.46.

As for `Cc1ccccc1N1CCN(S(=O)(=O)CC23CCC(CC2(O)C(C)C#N)C3(C)C)CC1` (single isomer, unassigned) [Example 2, 1-((7,7-DIMETHYL-2-EXO-HYDROXY-2-ENDO-(1-CYANO)ETHYL-BICYCLO(2.2.1)HEPTAN-1-YL)-METHANESULFONYL)-4-(2-METHYL PHENYL)PIPERAZINE], the pIC50 was 6.82.

As to `Cc1ccccc1N1CCN(S(=O)(=O)CC23CCC(CC2NC(=O)C(C)c2c[nH]cn2)C3(C)C)CC1` (stereo not drawn) [Example 44, 1-((7,7-DIMETHYL-2-ENDO-(2-(4-IMIDAZOLYL)PROPANOYL)AMINO-BICYCLO(2.2.1 )HEPTAN-1-YL)-METHANESULFONYL)-4-(2-METHYLPHENYL)-3-PIPERAZINE], the pIC50 is 6.74. The pIC50 values of the last two molecules are within 0.2 log units of each other.

As for `Cc1ccccc1N1CCN(S(=O)(=O)CC23CCC(CC2(O)C(C)CNC(=O)C2CCCN2)C3(C)C)CC1` (centres unmarked) [Example 4], the pIC50 is 7.47. This pIC50 is 0.73 log units higher than that of the molecule before.

In turn, `Cc1ccccc1N1CCN(S(=O)(=O)CC23CCC(CC2(O)C(C)CNC(=O)C2CCNCC2)C3(C)C)CC1` (centres unmarked) [Example 54] showed a pIC50 of 7.85.

On to `Cc1ccccc1N1CCN(S(=O)(=O)CC23CCC(CC2(O)C(C)CNC(=O)C2CCCN(CCC(=O)O)C2)C3(C)C)CC1` (stereo not drawn) [Example 49, 1-((7,7-DIMETHYL-2-EXO-HYDROXY-2-ENDO-2-(1-(3-(1-CARBOXYETHYL)PIPERIDINYLCARBONYL)-AMINO)PROPYL-BICYCLO-(2.2.1)HEPTAN-1-YL)METHANESULFONYL)-4-(2-METHYLPHENYL) PIPERAZINE], for which the pIC50 was 7.60.

`Cc1ccccc1N1CCN(S(=O)(=O)CC23CCC(CC2(O)C(C)CNC(=O)C2CCN(CCC(=O)O)CC2)C3(C)C)CC1` (stereo not drawn) [Example 56, 1-((7,7-DIMETHYL-2-EXO-HYDROXY-2-ENDO-2-(1-(4-(1-CARBOXYETHYL)PIPERIDINYLCARBONYL)-AMINO)PROPYL-BICYCLO-(2.2.1)HEPTAN-1-YL)METHANESULFONYL)-4-(2-METHYLPHENYL) PIPERAZINE] had a pIC50 of 7.27. Compared with the last molecule, the pIC50 is 0.33 log units lower.

For the molecule `Cc1ccccc1N1CCN(S(=O)(=O)CC23CCC(CC2(O)C(C)CNC(=O)Cc2c[nH]cn2)C3(C)C)CC1` (centres unmarked) [Example 7], the negative-log IC50 (pIC50) was 8.10.

For `Cc1ccccc1N1CCN(S(=O)(=O)CC23CCC(CC2=CCNCC(C)C)C3(C)C)CC1` (centres unmarked) [Example 14, 1-((7,7-dimethyl-2-(2-isobutylamino)ethylidine-bicyclo (2.2.1)heptan-1-yl)methanesulfonyl)-4-(2-methylphenyl) piperazine], the pIC50 is 5.96.

The molecule `Cc1ccccc1N1CCN(S(=O)(=O)CC23CCC(CC2(O)C(C)CNC(=O)C2CCN(CC(=O)O)CC2)C3(C)C)CC1` (stereo not drawn) [Example 58, 1-((7,7-DIMETHYL-2-EXO-HYDROXY-2-ENDO-2-(1-(4-(1-CARBOXYMETHYL)PIPERIDINYLCARBONYL)-AMINO)PROPYL-BICYCLO (2.2.1)HEPTAN-1-YL)METHANESULFONYL)-4-(2-METHYLPHENYL) PIPERAZINE] had a pIC50 of 7.25.

As to `COC(=O)CCN1CCCC1C(=O)NCC(C)C1(O)CC2CCC1(CS(=O)(=O)N1CCN(c3ccccc3C)CC1)C2(C)C` (centres unmarked) [Example 45], the pIC50 was 7.92.

As to `Cc1ccccc1N1CCN(S(=O)(=O)CC23CCC(CC2NC(=O)Cc2c[nH]cn2)C3(C)C)CC1` (centres unmarked) [Example 43], the pIC50 was 6.96.
